Holding throughout (assay type): in vivo
Test [1] deals with Amaranthus retoflexus (AMARE). In words: Pre-emergence biological efficacy, glasshouse pot test. The settings on record: Amaranthus retroflexus, 312 h; pre-emergence, rate 1,000 g/ha, evaluated after 13 days (100=total damage to plant; 0=no damage); read-out: Percentage damage caused to weed species, AMARE. An outline of the steps:
(§1)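 Damage rated 0–100 (100 = total kill) 13 days post-spray. Pots of standard soil were sown and sprayed after one day with test compound at 1000 or 250 g/ha in acetone/water (50:50) plus 0.5% Tween 20.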

Test [2] concerns Setaria faberi (SETFA). Described as above. The settings on record: 312 h, pre-emergence, rate 1,000 g/ha, evaluated after 13 days (100=total damage to plant; 0=no damage), read-out: Percentage damage caused to weed species, SETFA. The gist of the method:
as §1

Test [3] concerns Alopecurus myosuroides (ALOMY). The description is as above. The conditions noted are these: 312 h, pre-emergence, rate 1,000 g/ha, evaluated after 13 days (100=total damage to plant; 0=no damage), read-out: Percentage damage caused to weed species, ALOMY. An outline of the steps:
as §1

For test [4], the system named is Solanum nigrum (SOLNI). The test is described as above. The settings on record: 312 h, pre-emergence, rate 1,000 g/ha, evaluated after 13 days (100=total damage to plant; 0=no damage), read-out: Percentage damage caused to weed species, SOLNI. The gist of the method:
as §1

Test [5] has as its system Ipomea hederaceae (IPOHE). Described as above. The settings on record: Ipomoea hederacea, 312 h; pre-emergence, rate 1,000 g/ha, evaluated after 13 days (100=total damage to plant; 0=no damage); read-out: Percentage damage caused to weed species, IPOHE. An outline of the steps: as §1
Test [6] deals with Echinochloa crus-galli (ECHCG). The description is as above. The settings on record: 312 h, pre-emergence, rate 1,000 g/ha, evaluated after 13 days (100=total damage to plant; 0=no damage), read-out: Percentage damage caused to weed species, ECHCG. An outline of the steps: as §1
Test [7] relates to Amaranthus retoflexus (AMARE). In words: Post-emergence biological efficacy, glasshouse pot test. The conditions noted are these: Amaranthus retroflexus, 312 h; Rate 1,000 g/ha; post-emergence spray; evaluated after 13 days (100=total damage to plant; 0=no damage to plant); read-out: Percentage damage caused to weed species, post-emergence, AMARE. An outline of the steps: (§2)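 Pot-grown weeds were sprayed 8 days after sowing with test compound in acetone/water (50:50) with 0.5% Tween 20 at 1000 or 250 g/ha. Glasshouse at 24/16° C day/night, 14 h light, 65% humidity. Damage scored 0-100 (100 = total damage) after 13 days.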

Test [8] relates to Setaria faberi (SETFA). The description is as above. The settings on record: 312 h, Rate 1,000 g/ha, post-emergence spray, evaluated after 13 days (100=total damage to plant; 0=no damage to plant), read-out: Percentage damage caused to weed species, post-emergence, SETFA. An outline of the steps: as §2
Test [9] deals with Alopecurus myosuroides (ALOMY). Described as above. The settings on record: 312 h, Rate 1,000 g/ha, post-emergence spray, evaluated after 13 days (100=total damage to plant; 0=no damage to plant), read-out: Percentage damage caused to weed species, post-emergence, ALOMY. An outline of the steps:
as §2

Test [10] concerns Solanum nigrum (SOLNI). Described as above. The conditions noted are these: 312 h, Rate 1,000 g/ha, post-emergence spray, evaluated after 13 days (100=total damage to plant; 0=no damage to plant), read-out: Percentage damage caused to weed species, post-emergence, SOLNI. The gist of the method: as §2
Test [11] deals with Ipomea hederaceae (IPOHE). The description is as above. The conditions noted are these: Ipomoea hederacea, 312 h; Rate 1,000 g/ha; post-emergence spray; evaluated after 13 days (100=total damage to plant; 0=no damage to plant); read-out: Percentage damage caused to weed species, post-emergence, IPOHE. The gist of the method: as §2
Test [12] relates to Echinochloa crus-galli (ECHCG). The description is as above. The settings on record: 312 h, Rate 1,000 g/ha, post-emergence spray, evaluated after 13 days (100=total damage to plant; 0=no damage to plant), read-out: Percentage damage caused to weed species, post-emergence, ECHCG. The gist of the method:
as §2

This is an account of results in US20110086759A1, “CHEMICAL COMPOUNDS” (SYNGENTA CROP PROTECTION, INC., priority 2007, published 2011).

Consider `COC(=O)c1nc(C2CC2)nc(N(C)Cc2ccc(Cl)c(Cl)c2)c1Cl` [Compound 5-105, 5-Chloro-2-cyclopropyl-4-[N-(3,4-dichlorophenyl-methyl)-N-methyl-amino]-6-methoxy-carbonylpyrimidine], for which the pest or weed control at 1000 g/ha in [1] was found to be 80%; with Setaria faberi (SETFA) [2], 30%; in [3], 10%; in the test with Solanum nigrum (SOLNI) [4], 60%; in [5] it was 60%; in test [6], 10%. Also, the pest or weed control at 1000 g/ha in test [7] stood at 100%; with Setaria faberi (SETFA) [8], 60%; in test [9] it was 30%; with Solanum nigrum (SOLNI) [10], 80%; in test [11], 80%; in [12], 40%.
Regarding `COC(=O)c1nc(C2CC2)nc(N(C)Cc2cc(OC)cc(OC)c2)c1Cl` [Compound 5-113, 5-Chloro-2-cyclopropyl-4-[N-(3,5-dimethoxy-phenylmethyl)-N-methyl-amino]-6-methoxycarbonyl-pyrimidine], the pest or weed control at 1000 g/ha in test [1] came to 70%; in the test on Setaria faberi (SETFA) [2], 0%; in [3], 0%; in the test with Solanum nigrum (SOLNI) [4] it was 10%; in [5] it was 60%; in test [6] it was 0%. Also, the pest or weed control at 1000 g/ha was found to be 80% in test [7]; 30% in the test on Setaria faberi (SETFA) [8]; 10% in [9]; 70% with Solanum nigrum (SOLNI) [10]; 70% in test [11]; 10% in [12].
For `CCOc1ccc(CN(C)c2nc(C3CC3)nc(C(=O)OC)c2Cl)cc1OCC` [Compound 5-114, 5-Chloro-2-cyclopropyl-4-[N-(3,4-diethoxy-phenylmethyl)-N-methyl-amino]-6-methoxycarbonyl-pyrimidine], the pest or weed control at 1000 g/ha in [1] amounted to 70%; with Setaria faberi (SETFA) [2] it was 20%; in test [3], 0%; with Solanum nigrum (SOLNI) [4], 20%; in test [5] it was 40%; in test [6], 0%. Also, the pest or weed control at 1000 g/ha in [7] is 100%; in the test with Setaria faberi (SETFA) [8] it was 40%; in test [9], 10%; with Solanum nigrum (SOLNI) [10], 80%; in test [11], 70%; in test [12] it was 20%.
As to `COC(=O)c1nc(C2CC2)nc(N(C)Cc2ccco2)c1Cl` [Compound 5-125, 5-Chloro-2-cyclopropyl-4-(N-furan-2-ylmethyl-N-methyl-amino)-6-methoxycarbonyl-pyrimidine], the pest or weed control at 1000 g/ha is 100% in test [1]; 80% in the test with Setaria faberi (SETFA) [2]; 40% in test [3]; 90% in the test on Solanum nigrum (SOLNI) [4]; 100% in [5]; 70% in [6]. Besides, the pest or weed control at 1000 g/ha in test [7] was 100%; in the test with Setaria faberi (SETFA) [8], 80%; in test [9] it was 50%; in the test with Solanum nigrum (SOLNI) [10], 90%; in test [11], 100%; in test [12], 60%.
`COC(=O)c1nc(C2CC2)nc(N(C)Cc2ccc(C)o2)c1Cl` [Compound 5-135, 5-Chloro-2-cyclopropyl-6-methoxycarbonyl-4-[N-methyl-N-(5-methylfuran-2-ylmethyl)-amino]-pyrimidine]: the pest or weed control at 1000 g/ha was 100% in test [1]; 10% in the test on Setaria faberi (SETFA) [2]; 30% in [3]; 90% in the test on Solanum nigrum (SOLNI) [4]; 100% in [5]; 0% in [6]. For the same compound, the pest or weed control at 1000 g/ha in [7] worked out at 100%; with Setaria faberi (SETFA) [8] it was 80%; in test [9], 30%; with Solanum nigrum (SOLNI) [10] it was 90%; in test [11], 100%; in test [12], 40%.
Turning to `COC(=O)c1nc(C2CC2)nc(N(C)Cc2nonc2C)c1Cl` [Compound 5-149, 5-Chloro-2-cyclopropyl-6-methoxycarbonyl-4-[N-methyl-N-(4-methyl-1,2,5-oxadiazol-3-ylmethyl)-amino]-pyrimidine], the pest or weed control at 1000 g/ha in test [1] worked out at 80%; with Setaria faberi (SETFA) [2] it was 10%; in test [3], 30%; in the test with Solanum nigrum (SOLNI) [4] it was 40%; in [5], 80%; in [6], 20%. In addition, the pest or weed control at 1000 g/ha in test [7] worked out at 100%; in the test on Setaria faberi (SETFA) [8], 80%; in [9] it was 40%; in the test with Solanum nigrum (SOLNI) [10] it was 90%; in [11], 90%; in test [12], 40%.
`COC(=O)c1nc(C2CC2)nc(N(C)Cc2cccnc2)c1Cl` [Compound 5-156, 5-Chloro-2-cyclopropyl-6-methoxycarbonyl-4-(N-methyl-N-pyridin-3-ylmethyl-amino)pyrimidine]: the pest or weed control at 1000 g/ha in test [1] was 90%; with Setaria faberi (SETFA) [2] it was 0%; in test [3] it was 10%; in the test on Solanum nigrum (SOLNI) [4], 20%; in test [5] it was 60%; in test [6], 0%. Besides, the pest or weed control at 1000 g/ha in test [7] was 100%; in the test with Setaria faberi (SETFA) [8], 60%; in test [9], 30%; with Solanum nigrum (SOLNI) [10], 80%; in test [11] it was 80%; in test [12], 20%.
Regarding `COC(=O)c1nc(C2CC2)nc(N(C)Cc2ccncc2)c1Cl` [Compound 5-160, 5-Chloro-2-cyclopropyl-6-methoxycarbonyl-4-(N-methyl-N-pyridin-4-ylmethyl-amino)pyrimidine], the pest or weed control at 1000 g/ha in [1] came out at 80%; in the test with Setaria faberi (SETFA) [2], 0%; in test [3], 0%; in the test on Solanum nigrum (SOLNI) [4] it was 40%; in test [5], 70%; in test [6] it was 20%. The pest or weed control at 1000 g/ha in test [7] was determined as 100%; in the test with Setaria faberi (SETFA) [8] it was 60%; in test [9], 20%; with Solanum nigrum (SOLNI) [10], 80%; in test [11] it was 100%; in [12], 0%.
